Assay results from patent US20060160810A1, “2-Alkoxyphenyl substituted imidazotriazinones” (priority 2001, published 2006).

Molecular target: T1, human recombinant PDE5 (Homo sapiens, UniProt O76074)
T1 construct: made in house
Experiment: Phosphodiesterase [3H] cGMP-SPA enzyme assay (inhibition of PDE5 in vitro)
Assay type: biochemical
Conditions: human recombinant PDE5 expressed in a bacculovirus system; substance concentration at which the reaction rate is reduced by 50%; read-out: PDE V IC50
Procedure: To test the inhibiting action, the “Phosphodiesterase [^3H] cGMP-SPA enzyme assay” from Amersham Life Science was used. The test was carried out according to the manufacturer's test protocol. Use was made of human recombinant PDE5 which was expressed in a bacculovirus system. The substance concentration at which the reaction rate is reduced by 50% was measured.

IC50 | SMILES
4.2 nM | CCCc1nc(C)c2c(=O)[nH]c(-c3cc(S(=O)(=O)N4CCNCC4)ccc3OCC)nn12 [Example 1, 2-[2-Ethoxy-5-(1-piperazinylsulphonyl)phenyl]-5-methyl-7-propylimidazo-[5,1-f]-1,2,4-triazin-4(3H)-one]
19 nM | CCCc1nc(C)c2c(=O)[nH]c(-c3cc(S(=O)(=O)N4CC[N+]([O-])(CC)CC4)ccc3OCC)nn12 [Example 2, 2-{2-Ethoxy-5-[(4-ethyl-4-hydroxy-4λ^5-piperazin-1-yl)sulphonyl]phenyl}-5-methyl-7-propylimidazo[5,1-f]-1,2,4-triazin-4(3H)-one]
19 nM | CCCc1nc(C)c2c(=O)[nH]c(-c3cc(S(=O)(=O)NCCNCC)ccc3OCC)nn12 [Example 3, 4-Ethoxy-N-[2-(ethylamino)ethyl]-3-(5-methyl-4-oxo-7-propyl-3,4-dihydroimidazo[5,1-f]-1,2,4-triazin-2-yl)benzenesulphonamide]
2.4 nM | CCCc1nc(C)c2c(=O)[nH]c(-c3cc(S(=O)(=O)NCCN)ccc3OCC)nn12 [Example 4, N-(2-aminoethyl)-4-ethoxy-3-(5-methyl-4-oxo-7-propyl-3,4-dihydroimidazo[5,1-f]-1,2,4-triazin-2-yl)benzenesulphonamide]
